The values below come from US11629171B2, “Beta-hairpin peptidomimetics” (POLYPHOR AG, priority 2017, dated 2023).

Converted amounts (≈) assume the structure as drawn. Where a SMILES comes first, the peptide text is derived from it. Bridges are numbered along the chain shown (N, C = ends). Roman numbers before positions name the chains, in order. [ ]: non-standard residue; d: D form. dThr(ol) = C[C@H](O)[C@@H](N)CO; Thr(ol) = C[C@@H](O)[C@H](N)CO; Tle = CC(C)(C)[C@H](N)C(=O)O; Hiv = CC(C)[C@H](O)C(=O)O; dDab = NCC[C@@H](N)C(=O)O; hSer = N[C@@H](CCO)C(=O)O; Orn = NCCC[C@H](N)C(=O)O; Dab = NCC[C@H](N)C(=O)O; Dap = NC[C@H](N)C(=O)O

Usually MIC stands for the least concentration at which growth counts as inhibited. A lower MIC goes with inhibition by little substance.

What all share (format): cell-based
One data set has as its system Escherichia coli 926415. As to conditions: 926415. An outline of the steps:
(§1)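 Broth microdilution per CLSI; MH-II (cation-adjusted) + 0.002% P-80 final; ~10^6 CFU/mL inoculum; 2-fold peptide series; 35° C, 18-20 h; MIC = no visible growth, μg/mL.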

The subject of data set [1] is Acinetobacter baumannii DSM 30008. As to conditions: DSM 30008. In short, it runs like this:
as §1

The test system of data set [2] is Escherichia coli ATCC 25922. As to conditions: ATCC 25922. An outline of the steps: as §1
Data set [3] deals with Klebsiella pneumoniae 968733. As to conditions: 968733. An outline of the steps: as §1
Data set [4] has as its system Pseudomonas aeruginosa ATCC 27853. To be noted: ATCC 27853. In short, it runs like this: as §1
In data set [5] the test system is Enterobacter cloacae 848840. To be noted: 848840. An outline of the steps: as §1
The subject of data set [6] is Acinetobacter baumannii 872842. As to conditions: 872842. An outline of the steps:
as §1

Data set [7] deals with Klebsiella pneumoniae SSI #3010. To be noted: SSI #3010. An outline of the steps:
as §1

Data set [8] relates to human red blood cells (hRBC). Put plainly: Hemolysis. To be noted: red cells of human, 1 h, 200. An outline of the steps: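 Washed fresh human RBC (20% v/v) incubated with peptide at 200 μg/mL for 1 h at 37° C with shaking. Supernatant OD540 measured after dilution, blank corrected; percent hemolysis = OD540 peptide / OD540 of 2% Triton X-100 lysis × 100, PBS with 10% water as 0%.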

For `CC(C)C[C@@H]1NC(=O)[C@H](CCN)NC(=O)[C@H](CCN)NC(=O)[C@H](CC(C)C)NC(=O)[C@@H](CC(C)C)NC(=O)[C@H](CCN)NC(=O)[C@@H](NC(=O)[C@@H](CCN)NC(=O)CC[C@H]2NC(=O)[C@H](CCCN)NC(=O)[C@H](CCN)NC(=O)[C@H](Cc3ccc(O)cc3)NC(=O)[C@@H](NC(=O)[C@@H](O)C(C)C)CSSC[C@@H](C(=O)N[C@H](C(N)=O)[C@@H](C)O)NC(=O)[C@H](C(C)(C)C)NC(=O)[C@H](CO)NC(=O)[C@H](Cc3c[nH]c4ccccc34)NC(=O)[C@H]([C@@H](C)O)NC2=O)CCNC1=O` [Ex. 165] (I: H-[Hiv]CY[Dab][Orn][dE]TWS[Tle]CT-NH2 / II: [dDab][Dab][Dab][dL]L[Dab][Dab]L; disulfide I:2-I:11; amide I:6-II:N; lactam II:2-II:C), the minimum inhibitory concentration (MIC) is 0.125 µg/mL (≈ 0.0558 µM) against Escherichia coli 926415; 1 µg/mL (≈ 0.447 µM) in [1]; 0.25 µg/mL (≈ 0.112 µM) in [2]; 0.5 µg/mL (≈ 0.223 µM) in [3]; 0.5 µg/mL (≈ 0.223 µM) in data set [4]; 4 µg/mL (≈ 1.79 µM) in data set [5]. In addition, the results for the MIC in data set [6] and in data set [7] were 1 µg/mL (≈ 0.447 µM) and 0.25 µg/mL (≈ 0.112 µM), respectively. Also, the “Hemolysis at 200 μg/mL” value in data set [8] is <1%.

Consider `CC(=O)N[C@H](C(=O)N[C@H]1CSSC[C@@H](C(=O)N[C@@H](CO)C(N)=O)NC(=O)[C@H](C(C)(C)C)NC(=O)[C@H](CCC(=O)O)NC(=O)[C@H](Cc2c[nH]c3ccccc23)NC(=O)[C@H](CCO)NC(=O)[C@@H](CCN)NC(=O)[C@H](CCC(=O)N[C@@H](CCN)C(=O)N[C@H](C(=O)N[C@@H](CN)C(=O)N[C@H]2CCNC(=O)[C@H]([C@@H](C)O)NC(=O)[C@H](CCN)NC(=O)[C@H](CCN)NC(=O)[C@H](CC(C)C)NC(=O)[C@@H](CC(C)C)NC(=O)[C@H](CCN)NC2=O)[C@@H](C)O)NC(=O)[C@H](CCN)NC(=O)[C@H](Cc2ccc(O)cc2)NC1=O)C(C)C` [Ex. 156] (I: Ac-VCY[Dab]E[dDab][hSer]WE[Tle]CS-NH2 / II: [Dab]T[Dap][Dab][Dab][dL]L[Dab][Dab]T; disulfide I:2-I:11; amide I:5-II:N; lactam II:4-II:C), for which the minimal inhibitory concentration (MIC) came to 0.125 µg/mL (≈ 0.0506 µM) in the data set with Escherichia coli 926415; 0.0625 µg/mL (≈ 0.0253 µM) in data set [1]; 0.03125 µg/mL (≈ 0.0127 µM) in [2]; 0.25 µg/mL (≈ 0.101 µM) in data set [3]; 0.125 µg/mL (≈ 0.0506 µM) in [4]; 0.125 µg/mL (≈ 0.0506 µM) in data set [5]. Also, the MIC in data set [6] and in data set [7] was 0.125 µg/mL (≈ 0.0506 µM) throughout. Further, the “Hemolysis at 200 μg/mL” value in data set [8] is <1%.

`CC(C)C[C@@H]1NC(=O)[C@@H](CC(C)C)NC(=O)[C@H](CCN)NC(=O)[C@@H](NC(=O)[C@H](CCN)NC(=O)[C@@H](NC(=O)[C@H](CCN)NC(=O)CC[C@@H]2NC(=O)[C@H](CCN)NC(=O)[C@H](Cc3ccc(O)cc3)NC(=O)[C@@H](NC(=O)[C@@H](O)C(C)C)CSSC[C@@H](C(N)=O)NC(=O)[C@H](C(C)(C)C)NC(=O)[C@H](CO)NC(=O)[C@H](Cc3c[nH]c4ccccc34)NC(=O)[C@H](CCO)NC(=O)[C@@H](CCN)NC2=O)[C@@H](C)O)CCNC(=O)[C@H]([C@@H](C)O)NC(=O)[C@H](CCN)NC(=O)[C@H](CCN)NC1=O` [Example 7] (I: H-[Hiv]CY[Dab]E[dDab][hSer]WS[Tle]C-NH2 / II: [Dab]T[Dab][Dab][Dab][dL]L[Dab][Dab]T; disulfide I:2-I:11; amide I:5-II:N; lactam II:4-II:C): the minimal inhibitory concentration (MIC) worked out at 0.5 µg/mL (≈ 0.216 µM) against Escherichia coli 926415; 0.0625 µg/mL (≈ 0.027 µM) in data set [1]; 0.125 µg/mL (≈ 0.054 µM) in data set [2]; 0.25 µg/mL (≈ 0.108 µM) in [3]; 0.125 µg/mL (≈ 0.054 µM) in [4]; 2 µg/mL (≈ 0.865 µM) in data set [5]. Further, the values for the MIC in data set [6] and in data set [7] were 1 µg/mL (≈ 0.432 µM) and 0.125 µg/mL (≈ 0.054 µM), respectively. Also, the “Hemolysis at 200 μg/mL” value in data set [8] is reported as <1%.

Consider `CC(=O)N[C@H](C(=O)N[C@H]1CCCNC(=O)[C@@H]([C@H](C)O)NC(=O)[C@H](C(C)(C)C)NC(=O)[C@H](CO)NC(=O)[C@H](Cc2c[nH]c3ccccc23)NC(=O)[C@H](CCO)NC(=O)[C@@H](CCN)NC(=O)[C@H](CCC(=O)N[C@@H](CCN)C(=O)N[C@H](C(=O)N[C@@H](CCN)C(=O)N[C@H]2CCNC(=O)[C@H]([C@@H](C)O)NC(=O)[C@H](CCN)NC(=O)[C@H](CCN)NC(=O)[C@H](CC(C)C)NC(=O)[C@@H](CC(C)C)NC(=O)[C@H](CCN)NC2=O)[C@@H](C)O)NC(=O)[C@H](CCN)NC(=O)[C@H](Cc2ccc(O)cc2)NC1=O)C(C)C` [Ex. 15] (I: Ac-V[Orn]Y[Dab]E[dDab][hSer]WS[Tle][dT] / II: [Dab]T[Dab][Dab][Dab][dL]L[Dab][Dab]T; lactam I:2-I:C, II:4-II:C; amide I:5-II:N), for which the MIC with Escherichia coli 926415 came out at 0.25 µg/mL (≈ 0.106 µM); in [1], 0.125 µg/mL (≈ 0.0532 µM); in data set [2], 0.0625 µg/mL (≈ 0.0266 µM); in data set [3], 0.25 µg/mL (≈ 0.106 µM); in data set [4] it was 0.25 µg/mL (≈ 0.106 µM); in data set [5] it was 0.125 µg/mL (≈ 0.0532 µM). Moreover, the MIC is 0.25 µg/mL (≈ 0.106 µM) in data set [6] and 0.125 µg/mL (≈ 0.0532 µM) in data set [7]. Moreover, the “Hemolysis at 200 μg/mL” value in data set [8] was <1%.

Turning to `CC(C)C[C@@H]1NC(=O)[C@@H](CC(C)C)NC(=O)[C@H](CCN)NC(=O)[C@@H](NC(=O)[C@H](CCN)NC(=O)[C@@H](NC(=O)[C@H](CCN)NC(=O)CC[C@@H]2NC(=O)[C@H](CN)NC(=O)[C@H](Cc3ccc(O)cc3)NC(=O)[C@@H](NC(=O)[C@@H](O)C(C)C)CSSC[C@@H](C(=O)N[C@H](CO)[C@@H](C)O)NC(=O)[C@H](C(C)(C)C)NC(=O)[C@H](CCC(=O)O)NC(=O)[C@H](Cc3c[nH]c4ccccc34)NC(=O)[C@H]([C@@H](C)O)NC(=O)[C@@H](CCN)NC2=O)[C@@H](C)O)CCNC(=O)[C@H]([C@@H](C)O)NC(=O)[C@H](CCN)NC(=O)[C@H](CCN)NC1=O` [Ex. 90] (I: H-[Hiv]CY[Dap]E[dDab]TWE[Tle]C[Thr(ol)] / II: [Dab]T[Dab][Dab][Dab][dL]L[Dab][Dab]T; disulfide I:2-I:11; amide I:5-II:N; lactam II:4-II:C), the MIC in the data set with Escherichia coli 926415 worked out at 0.5 µg/mL (≈ 0.206 µM); in data set [1], 0.125 µg/mL (≈ 0.0515 µM); in data set [2], 0.0625 µg/mL (≈ 0.0257 µM); in data set [3], 0.25 µg/mL (≈ 0.103 µM); in [4] it was 0.25 µg/mL (≈ 0.103 µM); in [5], 0.25 µg/mL (≈ 0.103 µM). Also, the minimum inhibitory concentration (MIC) in data set [6] and in data set [7] was 0.125 µg/mL (≈ 0.0515 µM) throughout. For the same compound, in data set [8], the “Hemolysis at 200 μg/mL” value is listed as <1%.

As for `CC(=O)N[C@H](C(=O)N[C@H]1CSSC[C@@H](C(=O)N[C@@H](CO)[C@H](C)O)NC(=O)[C@H](C(C)(C)C)NC(=O)[C@H](CO)NC(=O)[C@H](Cc2c[nH]c3ccccc23)NC(=O)[C@H](CO)NC(=O)[C@@H](CCN)NC(=O)[C@H](CCC(=O)N[C@@H](CCN)C(=O)N[C@H](C(=O)N[C@@H](CN)C(=O)N[C@H]2CCNC(=O)[C@H]([C@@H](C)O)NC(=O)[C@H](CCN)NC(=O)[C@H](CCN)NC(=O)[C@H](CC(C)C)NC(=O)[C@@H](CC(C)C)NC(=O)[C@H](CCN)NC2=O)[C@@H](C)O)NC(=O)[C@H](CN)NC(=O)[C@H](Cc2ccc(O)cc2)NC1=O)C(C)C` [Ex. 124] (I: Ac-VCY[Dap]E[dDab]SWS[Tle]C[dThr(ol)] / II: [Dab]T[Dap][Dab][Dab][dL]L[Dab][Dab]T; disulfide I:2-I:11; amide I:5-II:N; lactam II:4-II:C), the MIC against Escherichia coli 926415 stood at 0.25 µg/mL (≈ 0.104 µM); in [1], 0.0625 µg/mL (≈ 0.026 µM); in data set [2], 0.0625 µg/mL (≈ 0.026 µM); in [3], 0.25 µg/mL (≈ 0.104 µM); in [4] it was 0.125 µg/mL (≈ 0.0521 µM); in data set [5] it was 0.125 µg/mL (≈ 0.0521 µM). The values for the minimal inhibitory concentration (MIC) in data set [6] and in data set [7] were 0.0625 µg/mL (≈ 0.026 µM) and 0.125 µg/mL (≈ 0.0521 µM), respectively. Also, the “Hemolysis at 200 μg/mL” value in data set [8] is listed as 2%.
